Test results: PMC8397948, “Effect of Selected Antidepressants on Placental Homeostasis of Serotonin: Maternal and Fetal Perspectives” (Pharmaceutics, 2021)
pIC50: −log10 of the molar value. Counter-ions that a name gives are not always drawn.

Key:
OCT3 [1] = target: T1, OCT3 (Rattus norvegicus, UniProt O88446); assay: In situ open-circuit perfusion of rat term placenta: 5-HT extraction from fetal circulation; type: in vivo
T1 sequence (O88446 1-551): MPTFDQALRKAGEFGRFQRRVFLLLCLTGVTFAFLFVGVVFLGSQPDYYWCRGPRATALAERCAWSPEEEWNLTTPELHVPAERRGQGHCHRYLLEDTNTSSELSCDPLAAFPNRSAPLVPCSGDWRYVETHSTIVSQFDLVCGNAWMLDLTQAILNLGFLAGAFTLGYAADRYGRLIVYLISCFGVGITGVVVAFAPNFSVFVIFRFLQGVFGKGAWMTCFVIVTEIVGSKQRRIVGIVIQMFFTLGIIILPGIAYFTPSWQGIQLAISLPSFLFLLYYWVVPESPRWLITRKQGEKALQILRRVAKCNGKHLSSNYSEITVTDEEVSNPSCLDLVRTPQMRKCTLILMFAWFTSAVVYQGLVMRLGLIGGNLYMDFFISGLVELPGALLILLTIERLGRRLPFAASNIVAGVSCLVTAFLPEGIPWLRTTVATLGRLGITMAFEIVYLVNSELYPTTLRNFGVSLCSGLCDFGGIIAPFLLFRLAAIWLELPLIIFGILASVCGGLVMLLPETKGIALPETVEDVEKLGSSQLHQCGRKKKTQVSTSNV

[2] = pregnant women or women; read-out: Cmax (maximum steady-state plasma concentration); cited from earlier work
[3] = Published plasma concentrations and fetal-to-maternal ratios in (pregnant) women; type: in vivo, human; settings: matches Ca x F/M ratio of published values
OCT3 [4] = target: T2, OCT3 (Homo sapiens, UniProt O75751); assay: [3H]5-HT uptake by basal membrane (BM) vesicles from human term placenta; type: biochemical; settings: 100 nM [3H]5-HT, 10 min preincubation, room temperature, n ≥ 4, read-out: IC50 BM (OCT3-mediated 5-HT uptake)
T2 construct: MVM and BM vesicles were used to evaluate the effects of antidepressants on SERT- and OCT3-mediated uptake of 5-HT, respectively; from tissue; host or cells: human term placenta, basal membrane (BM) vesicles
T2 sequence (O75751 1-556): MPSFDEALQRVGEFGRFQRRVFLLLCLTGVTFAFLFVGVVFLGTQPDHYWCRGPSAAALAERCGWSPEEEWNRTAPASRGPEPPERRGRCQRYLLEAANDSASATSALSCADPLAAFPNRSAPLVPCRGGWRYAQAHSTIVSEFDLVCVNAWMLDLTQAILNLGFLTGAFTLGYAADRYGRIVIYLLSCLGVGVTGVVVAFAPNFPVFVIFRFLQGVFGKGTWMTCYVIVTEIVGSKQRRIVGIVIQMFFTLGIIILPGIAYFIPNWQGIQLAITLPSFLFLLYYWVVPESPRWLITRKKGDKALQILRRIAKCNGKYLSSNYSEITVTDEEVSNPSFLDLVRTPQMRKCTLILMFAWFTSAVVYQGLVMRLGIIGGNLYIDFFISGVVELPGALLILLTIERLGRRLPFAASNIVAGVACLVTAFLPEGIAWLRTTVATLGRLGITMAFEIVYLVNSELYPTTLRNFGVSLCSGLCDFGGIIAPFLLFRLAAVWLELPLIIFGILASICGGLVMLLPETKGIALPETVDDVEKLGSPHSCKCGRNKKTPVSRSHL
Protocol: Maternal decidua and chorionic plate were removed, and placental villous tissue was cut into small pieces. The tissue was homogenized in a solution containing 250 mM sucrose, 10 mM Tris-Hepes (pH 7.2), 5 mM EGTA, 5 mM EDTA and 1 mM phenylmethylsulfonyl fluoride (PMSF). Microvillous and basal membrane (MVM and BM, respectively) vesicles were prepared simultaneously, using a previously described differential centrifugation method based on Mg^2+ precipitation and separation of MVM and BM in a sucrose gradient [40]. All these procedures were performed at 4 °C.
MVM and BM samples were resuspended in intravesicular buffer (290 mM sucrose, 5 mM Hepes, 5 mM Tris; pH 7.4), and vesiculated by passaging 20 times through a 25-gauge needle as previously described [32]. Protein concentration was measured using the BCA assay.
Uptake of [^3H]5-HT into MVM or BM vesicles was measured at room temperature using the rapid vacuum filtration technique as previously described [32]. […] Filter-associated radioactivity was determined by liquid scintillation counting. Non-specific tracer binding to the filter and plasma membranes was accounted for by subtracting radioactivity measured in protein-free controls and uptake at time zero, respectively, from the total vesicle uptake measurements. […]

[5] = 1 µM (therapeutic concentration), fetal sex not considered
[6] = 100 µM antidepressant, 1 nM [3H]5-HT, both fetal sexes together, vs control
[7] = 100 µM antidepressant, male placentas

Row | Structure (SMILES) | Effect on placental extraction of 5-HT from fetal circulation (OCT3 [1]; [5]) | Effect on placental extraction of 5-HT from fetal circulation (OCT3 [1]; [6]) | Cmax [2] [nM] | Effect on 5-HT extraction from circulation of male fetuses (OCT3 [1]; [7]) | further results
1 | CN(C)CCCC1(c2ccc(F)cc2)OCc2cc(C#N)ccc21 (centres unmarked) [Citalopram, citalopram hydrobromide] | no significant inhibition | significantly decreased | 1200 | – | –
2 | CNCCC(Oc1ccc(C(F)(F)F)cc1)c1ccccc1 (centres unmarked) [Fluoxetine, fluoxetine hydrochloride] | – | – | – | susceptible to inhibition | –
3 | COCCCC/C(=N\OCCN)c1ccc(C(F)(F)F)cc1 [Fluvoxamine, fluvoxamine maleate] | no significant inhibition | significantly decreased | 1300 | susceptible to inhibition | Ca;fetal (average fetal plasma concentration) [3]: 348 nM; pIC50 (OCT3 [4]): 7.82
4 | Fc1ccc([C@@H]2CCNC[C@H]2COc2ccc3c(c2)OCO3)cc1 [Paroxetine, paroxetine hydrochloride] | no significant inhibition | significantly decreased | 1000 | susceptible to inhibition | Effect on 5-HT extraction from fetal circulation in male placentas (OCT3 [1]; 1 µM (therapeutic concentration), male placentas): potent inhibitor in males; Effect on 5-HT extraction from circulation of female fetuses (OCT3 [1]; 100 µM antidepressant, female placentas): prone to inhibition; pIC50 (OCT3 [4]): 8.36
5 | CN[C@H]1CC[C@@H](c2ccc(Cl)c(Cl)c2)c2ccccc21 [Sertraline, sertraline hydrochloride] | – | – | – | susceptible to inhibition | –
6 | COc1ccc(C(CN(C)C)C2(O)CCCCC2)cc1 (centres unmarked) [Venlafaxine, venlafaxine hydrochloride] | – | – | – | susceptible to inhibition | –
7 | CCN1/C(=C/c2ccc3ccccc3[n+]2CC)C=Cc2ccccc21.[I-] [decynium-22] | – | – | – | – | Effect of model OCT3 inhibitor on 5-HT extraction from fetal circulation (OCT3 [1]; 10 µM decynium-22): sensitive to co-administration of decynium-22
